The nature of series [1]: Solubility of compound in phosphate buffer pH 7.4 using excess solid incubated for 24 hrs under agitation condition by reverse phase LC analysis. Format: physicochemical.
In series [2] the target is T1, Apelin receptor (Homo sapiens, UniProt P35414).
T1 sequence (P35414 whole entry): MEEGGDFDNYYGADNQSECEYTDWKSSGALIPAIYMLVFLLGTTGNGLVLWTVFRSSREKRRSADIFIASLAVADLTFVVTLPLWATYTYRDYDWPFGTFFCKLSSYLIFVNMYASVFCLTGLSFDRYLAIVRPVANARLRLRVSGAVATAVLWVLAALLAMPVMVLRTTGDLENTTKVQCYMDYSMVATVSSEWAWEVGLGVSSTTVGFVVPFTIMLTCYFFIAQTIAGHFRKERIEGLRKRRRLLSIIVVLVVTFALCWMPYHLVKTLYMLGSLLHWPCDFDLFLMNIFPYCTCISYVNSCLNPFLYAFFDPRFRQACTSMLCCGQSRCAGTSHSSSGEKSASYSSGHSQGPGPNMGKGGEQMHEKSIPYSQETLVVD
Put plainly: Agonist activity at human APJ receptor expressed in human HEK293 cells assessed as inhibition of forskolin-induced cAMP accumulation incubated for 1 hr by TR-FRET assay. The class given is functional, cell-based.

The target of series [3] is T2, Apelin receptor (Rattus norvegicus, UniProt Q9JHG3).
T2 sequence (Q9JHG3 whole entry): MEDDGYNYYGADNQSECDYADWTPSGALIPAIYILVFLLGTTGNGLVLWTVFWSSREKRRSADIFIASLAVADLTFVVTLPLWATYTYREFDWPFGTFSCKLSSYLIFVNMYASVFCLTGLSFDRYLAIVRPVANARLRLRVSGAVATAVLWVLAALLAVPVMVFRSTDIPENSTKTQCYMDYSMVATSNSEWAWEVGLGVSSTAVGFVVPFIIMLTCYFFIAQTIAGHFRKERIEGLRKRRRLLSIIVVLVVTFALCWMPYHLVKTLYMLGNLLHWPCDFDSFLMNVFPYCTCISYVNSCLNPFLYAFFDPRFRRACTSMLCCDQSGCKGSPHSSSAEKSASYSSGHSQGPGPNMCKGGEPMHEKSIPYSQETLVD
Put plainly: Agonist activity at rat APJ receptor expressed in human HEK293 cells assessed as inhibition of forskolin-induced cAMP accumulation incubated for 1 hr by TR-FRET assay. The class given is functional, cell-based.

A short description of series [4]: Metabolic stability in human liver microsomes assessed as parent compound remaining incubated for 10 mins in presence of NADPH by triple quadrupole mass spectrometry. Format: ADME, Microsome. The note with it: read-out: Stabilty.
Series [5] can be described thus: Metabolic stability in rat liver microsomes assessed as parent compound remaining incubated for 10 mins in presence of NADPH by triple quadrupole mass spectrometry. Format: ADME, Microsome. The settings on record: read-out: Stabilty.
In series [6] the target is T1, Apelin receptor. Put plainly: Displacement of [3H]Apelin-13 from human APJ receptor stably expressed in human HEK293 cell membrane incubated for 120 mins by TopCount scintillation plate reader analysis. The class given is cell membranes.
Series [7] in a line: Half life in Sprague-Dawley rat at 3 mg/kg, po measured up to 48 hrs by LC/MS/MS analysis. The settings on record: in vivo.
Series [8] can be described thus: Oral bioavailability in Sprague-Dawley rat at 3 mg/kg measured measured up to 48 hrs by LC/MS/MS analysis. The note with it: in vivo. Format: ADME, organism-based.
A short description of series [9]: Half life in cynomolgus monkey at 3 mg/kg, po measured measured up to 72 hrs by LC/MS/MS analysis. The note with it: in vivo.
Series [10] in a line: Oral bioavailability in cynomolgus monkey at 3 mg/kg measured measured up to 72 hrs by LC/MS/MS analysis. The class given is ADME, organism-based, Macaca fascicularis. The settings on record: in vivo.
A short description of series [11]: Renal clearance in Sprague-Dawley rat at 3 mg/kg, po measured up to 48 hrs by LC/MS/MS analysis. The settings on record: in vivo. Format: ADME, organism-based.
Series [12] in a line: Stability in human liver microsomes assessed as parent compound remaining at 30 uM incubated for 45 mins. Format: ADME, Microsome. The settings on record: read-out: Stabilty.
Series [13] is described as follows: Stability in rat liver microsomes assessed as parent compound remaining at 30 uM incubated for 45 mins. The note with it: read-out: Stabilty. Format: ADME, Microsome.
A short description of series [14]: Stability in monkey liver microsomes assessed as parent compound remaining at 30 uM incubated for 45 mins. Format: ADME, Macaca mulatta, Microsome. The settings on record: rhesus monkey, read-out: Stabilty.
Series [15] is described as follows: Glutathione reactivity of the compound assessed as GSH-adduct formation. Format: physicochemical.
Series [16] has as its system Rattus norvegicus. Kind of series: Hemodynamic activity in Sprague-Dawley rat model of acute pressure-volume loop assessed as increase in cardiac output at 10 ug/kg/min administered as iv infusion measured at 5 mins relative to control. The settings on record: dose 10 µg/kg/min. Format: functional.
In series [17] the test system is Rattus norvegicus. Kind of series: Hemodynamic activity in Sprague-Dawley rat model of acute pressure-volume loop assessed as peripheral vasodilation by measuring free plasma drug concentration at 10 ug/kg/min administered as iv infusion measured at 5 mins. The note with it: dose 10 µg/kg/min. The class given is functional.
Series [18] in a line: cells. The settings on record: Canis lupus familiaris, HEK293, 1 h.
Series [19] is described as follows: cells. The settings on record: Macaca mulatta, HEK293, 1 h.
Series [20] can be described thus: in vivo. The settings on record: Sprague-Dawley, rat, po, 3 mg/kg.
Description: Cmax in Sprague-Dawley rat at 3 mg/kg, po measured up to 48 hrs by LC/MS/MS analysis
A short description of series [21]: in vivo. The note with it: Sprague-Dawley, rat, po, 3 mg/kg. This is another data set of the same source.
Description: AUC (0 to infinity) in Sprague-Dawley rat at 3 mg/kg, po measured up to 48 hrs by LC/MS/MS analysis
Series [22] is described as follows: in vivo. The settings on record: cynomolgus monkey, po, 3 mg/kg.
Description: Cmax in cynomolgus monkey at 3 mg/kg, po measured measured up to 48 hrs by LC/MS/MS analysis
A short description of series [23]: in vivo. The settings on record: cynomolgus monkey, po, 3 mg/kg. This is another data set of the same source.
Description: AUC (0 to infinity) in cynomolgus monkey at 3 mg/kg, po measured measured up to 72 hrs by LC/MS/MS analysis
Series [24] in a line: Urinary excretion in cynomolgus monkey at 3 mg/kg, po measured measured up to 72 hrs by LC/MS/MS analysis. The settings on record: in vivo.

In brackets after ≈: the same amount, converted by molar mass.

These results are taken from ChEMBL document CHEMBL4819044, “Discovery of a Hydroxypyridinone APJ Receptor Agonist as a Clinical Candidate” (J Med Chem, 2021).

On to `COc1cccc(OC)c1-c1c(C2CCCC2)[nH]c(=O)c(-c2nnc(Cc3ccc(Cl)cc3)o2)c1O`, for which the solubility (thermodynamic) at 24 h in [1] came to 4 µg/mL (≈ 7.87 µM). Further, the 50% effective concentration (EC50) at Apelin receptor [2] was determined as 0.24 nM; at Apelin receptor [3], 0.51 nM. Besides, the results for the remaining at 10 min in [4] and in [5] were 80% and 66%, respectively.

For the compound `COc1cccc(OC)c1-c1c(C2CC2)[nH]c(=O)c(-c2nnc(Cc3ccc(Cl)cc3)o2)c1O`, the thermodynamic solubility at 24 h in [1] stood at 12 µg/mL (≈ 25 µM). The EC50 at Apelin receptor [2] is 11 nM; at Apelin receptor [3] it was 15 nM. Also, the values for the remaining at 10 min in series [4] and in [5] were 88% and 51%, respectively.

`CCCCc1nc(O)c(-c2nnc(Cc3ccccc3Cl)o2)c(O)c1-c1c(OC)cccc1OC`: the 50% effective concentration (EC50) is 8.6 nM on Apelin receptor [2] and 18 nM on Apelin receptor [3]. In addition, the remaining at 10 min in series [4] was found to be 82%; in [5] it was 24%.

Turning to `CCCCc1[nH]c(=O)c(-c2nnc(Cc3ccccc3)o2)c(O)c1-c1c(OC)cccc1OC`, the EC50 at Apelin receptor [3] turned out to be 31 nM. Besides, the remaining at 10 min was 87% in [4] and 53% in [5].

`COCCc1[nH]c(=O)c(-c2nnc(Cc3ccc(Cl)cc3)o2)c(O)c1-c1c(OC)cccc1OC` yielded a solubility (thermodynamic) at 24 h in series [1] of 73 µg/mL (≈ 147 µM). For the same compound, the concentration giving a half-maximal response (EC50) on Apelin receptor [3] came out at 1.4 nM. Further, the remaining at 10 min in series [4] came to 86%; in [5] it was 73%.

For the compound `CCCCc1nc(O)c(-c2nnc(Cc3ccc(Cl)cc3)o2)c(O)c1-c1c(OC)cccc1OC`, in [1], the thermodynamic solubility at 24 h is < 1 µg/mL. In addition, the figures for the EC50 on Apelin receptor [2] and on Apelin receptor [3] were 0.4 nM and 1.2 nM, respectively. Besides, the remaining at 10 min was 66% in series [4] and 22% in series [5].

`CCCCc1[nH]c(=O)c(C(=O)OCC)c(O)c1-c1c(OC)cccc1OC`: the EC50 on Apelin receptor [3] was 980 nM. For the same compound, the results for the remaining at 10 min in series [4] and in series [5] were 89% and 24%, respectively.

As to `CCCCc1nc(O)c(-c2nnc(Cc3cccc(Cl)c3)o2)c(O)c1-c1c(OC)cccc1OC`, the concentration giving a half-maximal response (EC50) is 2.6 nM at Apelin receptor [2] and 7.3 nM at Apelin receptor [3]. Also, the remaining at 10 min was 88% in series [4] and 38% in series [5].

For the compound `CCOCc1nc(O)c(-c2nnc(Cc3ccc(Cl)cc3)o2)c(O)c1-c1c(OC)cccc1OC`, the solubility (thermodynamic) at 24 h in series [1] stood at 26 µg/mL (≈ 52.2 µM). Further, the EC50 at Apelin receptor [2] stood at 0.12 nM; on Apelin receptor [3] it was 0.23 nM. The values for the remaining at 10 min in [4] and in [5] were 94% and 74%, respectively.

`CCCCc1[nH]c(=O)c(-c2nc(Cc3ccccc3)no2)c(O)c1-c1c(OC)cccc1OC`: the EC50 on Apelin receptor [3] is 120 nM. For the same compound, the remaining at 10 min in series [4] came out at 69%; in [5] it was 54%.

With `CCCCc1[nH]c(=O)c(-c2n[nH]c(Cc3ccccc3)n2)c(O)c1-c1c(OC)cccc1OC`, the 50% effective concentration (EC50) on Apelin receptor [3] is 430 nM. Moreover, the remaining at 10 min in series [4] amounted to 36%; in series [5], 15%.

`CCOCc1[nH]c(=O)c(-c2nnc(Cc3ccc(Cl)nc3)o2)c(O)c1-c1c(OC)cccc1OC`: the thermodynamic solubility at 24 h in series [1] is 110 µg/mL (≈ 220 µM). Also, the EC50 amounted to 0.17 nM on Apelin receptor [2] and 0.58 nM on Apelin receptor [3]. The remaining at 10 min in series [4] came to 96%; in [5], 76%.

For `CCCCc1[nH]c(=O)c(-c2nnc(-c3ccc(Cl)cc3)o2)c(O)c1-c1c(OC)cccc1OC`, the 50% effective concentration (EC50) at Apelin receptor [3] came to 450 nM. In addition, the remaining at 10 min in series [4] was 99%; in series [5], 36%.

In turn, `CCOCc1nc(O)c(-c2nnc(Cc3ccc(Cl)cn3)o2)c(O)c1-c1c(OC)cccc1OC` [BMS-986224] registered a solubility (thermodynamic) at 24 h in series [1] of 220 µg/mL (≈ 441 µM). Further, the EC50 at Apelin receptor [2] was 0.023 nM; at Apelin receptor [3], 0.024 nM; in “cells [18]”, 0.03 nM; in “cells [19]” it was 0.08 nM. Moreover, the results for the remaining at 10 min in series [4] and in series [5] were 91% and 92%, respectively. At Apelin receptor [6], the Ki was 0.074 nM. Besides, the half-life at 48 h in [7] was 2.5 h. In addition, the values for the bioavailability in series [8] and in series [10] were 77% and 56%, respectively. For the same compound, in series [9], the half-life at 72 h is 3.6 h. Also, in series [11], the dose excreted at 48 h was 4%. For the same compound, the remaining at 0.75 h, 30 µM in series [12], in series [13] and in [14] was > 95% in each case. In addition, the Drug metabolism entry in [15] is given as “Not Active”. Also, the Activity with Rattus norvegicus [16] turned out to be 12%. For the same compound, the “Cp(f)” value in the series with Rattus norvegicus [17] was found to be 18 nM. Further, the Cmax at 48 h in the series “in vivo [20]” was 5.6 µM; in “in vivo [22]”, 1.5 µM. The AUC(0-inf) at 48 h in the series “in vivo [21]” amounted to 34 µM·h. Also, in the series “in vivo [23]”, the AUC(0-inf) at 72 h stood at 15.3 µM·h. For the same compound, the “dose excreted in urine” value in series [24] came out at 12%.
